Measured values: patent publication US7700655B2, “Antiallergic agents” (Institute of Medicinal Molecular Design, Inc., priority 2002, dated 2010)

What was measured:
HT-1080 cells = experiment: Proliferation inhibitory test of fibrosarcoma (HT-1080) under PDGF stimulation (MTT assay); format: cell-based; conditions: 48 hours
Protocol: Proliferation Inhibitory Test of Fibrosarcoma (HT-1080) Under PDGF Stimulation
HT-1080 cells were cultured for 2 hours in EMEM medium containing 1% of FBS and NEAA in the presence or absence of a test substance. PDGF was added and the cells were cultured for 48 hours, and the proliferation of the cells was measured by MTT assay.

[1] = tested on: mouse bone marrow-derived cultured mast cells (BMCMC); experiment: Degranulation inhibitory test of mast cell (β-hexosaminidase release); format: cell-based; conditions: 1 h, anti DNP IgE / DNP-BSA 50 ng/ml stimulation, 60 minutes, read-out: Inhibitory Ration of Degranulation(%) at 10 μM Drug Concentration
Protocol: Degranulation Inhibitory Test of Mast Cell
Anti DNP IgE was added to mouse bone marrow-derived cultured mast cells (BMCMC) which were treated beforehand with anti DNP IgE for 4 days for expression of IgE receptor. The cells were cultured for 3 days, and treated for 1 hour with or without the addition of a test substance. Then, the medium was changed to α-Modified Eagle's Medium containing 10% of bovine fetal serum without phenol red. After cultivation for 60 minutes with rmIL-3 (100 U/ml) and DNP-BSA (50 ng/ml) in the presence or absence of the test substance, the concentrations of β-hexosaminidase in the culture medium and in the cells were determined, and the progress of degranulation was measured from a ratio of the amounts. The inhibitory ratio of the degranulation by the drug was calculated when degranulation in the absence of the test substance was taken as 100%, and degranulation in the presence of anti DNP-IgE only and in the absence of the test substance was taken as 0%.

[2] = tested on: B cells isolated from mouse spleen; experiment: IgE production inhibitory test of spleen B cell (ELISA); format: cell-based; conditions: 0.1 μM; rmIL-4 200 U/ml + soluble mCD40 ligand 100 ng/ml, 9 days; no-drug control 45.6
Protocol: IgE Production Inhibitory Test of Spleen B Cell
B cells isolated from mouse spleen were cultured with 200 U/ml of rmIL-4 and 100 ng/ml of soluble mCD40 ligand in the presence or absence of a test drug in PRMI 1640 medium containing 10% of bovine fetal serum for 9 days, and the amount of IgE in the culture medium was measured by ELISA method.

[3] = tested on: Bone marrow-derived cultured mast cells of NC/Nga mouse; experiment: Proliferation inhibitory test of mast cell under stimulation by SCF and IL-3; format: cell-based; conditions: rmIL-3 100 U/ml + SCF 100 ng/ml, living cells by trypan blue
Protocol: Proliferation Inhibitory Test of Mast Cell Under Stimulation by SCF and IL-3
Bone marrow-derived cultured mast cells (10^5 cells/ml) of NC/Nga mouse were cultured with rmIL-3 (100 U/ml) and SCF (100 ng/ml) in the presence or absence of a test drug in α-Modified Eagle's Medium containing 10% of bovine fetal serum without phenol red, and then stained with trypan blue, and the number of living cells was counted.

NC/Nga mouse [4] = experiment: Immediate type allergy reaction inhibitory test (ear swelling test); format: in vivo; conditions: 15 mg/kg intraperitoneally, picryl chloride on auricle; FIG. 1
Protocol: Immediate Type Allergy Reaction Inhibitory Test (Ear Swelling Test)
To NC/Nga mouse sensitized by an intravenous administration of anti DNP-IgE, a diluent with a test compound for the drug administered group or that without a test drug for the control group was intraperitoneally administered. Two hours after the administration, picryl chloride dissolved in olive oil was applied to auricle to induce immediate allergy, and then swelling of the auricle was measured with passage of time for comparison of the drug administered group and the control group.

NC/Nga mouse [5] = experiment: Dermatitis inhibitory test by atopic dermatitis model using NC/Nga mouse; format: in vivo; conditions: ointment containing 1% applied once a day; FIG. 2
Protocol: Dermatitis Inhibitory Test by Atopic Dermatitis Model Using NC/Nga Mouse
To the conventional NC/Nga mouse with the onset of severe dermatitis, an ointment containing 1% of a test substance for the drug treated group or a base material of the ointment for the control group was applied once a day, and clinical symptoms were recorded as scores with passage of day. Furthermore, the amounts of IgE in blood before and after the test were measured by ELISA.

| Compound | Inhibitory Ratio of Proliferation(%) (HT-1080 cells; Drug Concentration 250 nM) | Inhibitory Ratio of Proliferation(%) (HT-1080 cells; Drug Concentration 500 nM) | inhibition at 10 µM [1] [%] | further results |
| --- | --- | --- | --- | --- |
| O=C(Nc1cc(C(F)(F)F)ccc1C(F)(F)F)c1cc(Br)ccc1O [compound 552] | 24.0 | 19.4 | – | – |
| CC(C)(C)c1ccc(O)c(C(=O)Nc2cc(C(F)(F)F)cc(C(F)(F)F)c2)c1 [compound 56, N-[3,5-Bis(trifluoromethyl)phenyl]-5-[(1,1-dimethyl)ethyl]-2-hydroxybenzamide] | 37.5 | 96.9 | 92 | – |
| CC(=O)Oc1ccccc1C(=O)Nc1cc(Cl)cc(Cl)c1 [compound 172, 2-acetoxy-N-(3,5-dichlorophenyl)benzamide] | – | – | – | melting point: 218 to 219 °C |
| CC(C)(C)c1nc(NC(=O)c2cc(Br)ccc2O)sc1N1CCOCC1 [compound 199, 5-Bromo-N-{4-[(1,1-dimethyl)ethyl]-5-morpholinothiazol-2-yl}-2-hydroxybenzamide] | 26.2 | 24.2 | – | – |
| CC(C)(C)c1nc(NC(=O)c2cc(Br)ccc2O)sc1N1CCN(c2ccccc2)CC1 [compound 201, 5-Bromo-N-{4-[(1,1-dimethyl)ethyl]-5-(4-phenylpiperazin-1-yl)thiazol-2-yl}-2-hydroxybenzamide] | 60.3 | 76.2 | – | – |
| CC(C)(C)C(=O)c1sc(NC(=O)c2cc(Cl)ccc2O)nc1C(C)(C)C [compound 195, 5-Chloro-N-{4-[(1,1-dimethyl)ethyl]-5-[(2,2-dimethyl)propionyl]thiazol-2-yl}-2-hydroxybenzamide] | 44.7 | 81.7 | 72 | – |
| O=C(Nc1cc(C(F)(F)F)cc(C(F)(F)F)c1)c1cc(-n2cccc2)ccc1O [compound 71] | 57.9 | 83.1 | – | – |
| O=C(Nc1cc(C(F)(F)F)ccc1C(F)(F)F)c1cc(Cl)ccc1O [compound 100, N-[2,5-bis(trifluoromethyl)phenyl]-5-chloro-2-hydroxybenzamide] | – | – | 83 | – |
| O=C(Nc1cc(C(F)(F)F)ccc1Cl)c1cc(Cl)ccc1O [compound 113, 5-chloro-N-[2-chloro-5-(trifluoromethyl)phenyl]-2-hydroxybenzamide] | – | – | 93 | – |
| O=C(Nc1cc(C(F)(F)F)cc(C(F)(F)F)c1)c1cc(Cl)ccc1O [compound 50, N-[3,5-Bis(trifluoromethyl)phenyl]-5-chloro-2-hydroxybenzamide] | 65.4 | 96.6 | > 99 | Amount of IgE [2]: 24 ng/mL; Number of Cell ([3]; 1 μM, culture time 0 hr): 100000 mL⁻¹; Number of Cell ([3]; 1 μM, culture time 24 hr): 86000 mL⁻¹; Number of Cell ([3]; 1 μM, culture time 48 hr): 84000 mL⁻¹; Number of Cell ([3]; 1 μM, culture time 72 hr): 116000 mL⁻¹; Number of Cell ([3]; 5 μM, culture time 0 hr): 100000 mL⁻¹; Number of Cell ([3]; 5 μM, culture time 24 hr): 70000 mL⁻¹; Number of Cell ([3]; 5 μM, culture time 48 hr): 52000 mL⁻¹; Number of Cell ([3]; 5 μM, culture time 72 hr): 22000 mL⁻¹; effect against immediate type allergy (swelling of the auricle) (NC/Nga mouse [4]): inhibitory effect; effect against dermatitis with an atopic dermatitis model (clinical symptom scores) (NC/Nga mouse [5]): inhibitory effect |
